Measured values: patent US12116343B2, “Inhibitors of APOL1 and methods of using same” (Vertex Pharmaceuticals Incorporated, priority 2020, dated 2024)

molecular target: T1, APOL1 G1 Protein (Homo sapiens, UniProt O14791, I384M/S342G); assay: Trypanosoma brucei brucei lysis assay using APOL1 recombinant protein (AlamarBlue viability); format: cell-based; conditions: Trypanosoma brucei brucei lysis, recombinant APOL1, AlamarBlue; read-out: Trypanosoma Assay (IC50)
T1 sequence (O14791 28-398 S342G/I384M): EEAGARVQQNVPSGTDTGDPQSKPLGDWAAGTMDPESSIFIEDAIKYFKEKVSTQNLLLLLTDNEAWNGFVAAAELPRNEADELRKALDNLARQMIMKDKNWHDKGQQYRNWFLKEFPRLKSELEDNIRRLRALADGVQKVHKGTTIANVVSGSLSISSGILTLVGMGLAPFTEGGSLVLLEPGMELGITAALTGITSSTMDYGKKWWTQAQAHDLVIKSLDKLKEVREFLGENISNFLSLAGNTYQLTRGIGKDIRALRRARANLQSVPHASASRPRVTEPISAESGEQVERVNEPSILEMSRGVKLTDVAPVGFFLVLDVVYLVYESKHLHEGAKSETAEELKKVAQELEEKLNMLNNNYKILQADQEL
Excerpt: Trypanosoma brucei brucei is a blood stream parasite to which human, gorillas and baboon are immune due to the presence of the APOL1 protein in their HDL particles. The protein is uptaken by the parasite via the TbHpHb receptor located in its flagellar pocket and is bonded by the Hpr protein contained in the HDL particles which triggers the receptor endocytosis by the parasite.
Following endocytosis, the formed vesicle containing the HDL particle matures from early to late endosome, and subsequently to lysosome. The concomitant pH change in the lumen of the vesicle triggers the insertion of the APOL1 protein into the membrane of the late endosome/lysosome and hereby triggers lysosomal membrane premeabilisation and as a further downstream event, trypanosome lysis. Trypanosoma brucei brucei is sensitive to lysis by all three APOL1 variants (G0, G1, and G2).
The Trypanosoma brucei brucei lysis assay is a lysis assay of the parasite using recombinant APOL1 protein variant followed by a fluorescent detection method of viability by the addition of AlamarBlue reagent to the assay well, a general metabolic redox indicator (AlamarBlue assay).
Briefly, the AlamarBlue active compound, the resazurin, a blue, water soluble, non-toxic and cell permeable molecule, which can be followed by absorbance, is reduced by various metabolic pathways into resorufin, a red compound which can be followed by either absorbance or fluorescence. The assay allows the calculation of the percent viability (percent of living Trypanosomes remaining in each well) at the end of a lysis relative to the untreated condition by interpolation of fluorescent values (FLU) on a standard curve with a known amount of seeded trypanosome/well.
Trypanosoma brucei brucei (ATCC, Cat. No. PRA-382) • Lister 427 VSG 221 bloodstream form.
Thaw/Expansion Media (ATCC Medium 2834 Modified HMI-9 Medium)
Assay Media (No Phenol Red/No FBS): Make on Day of Use
Hypoxanthine Stock (100×)-9 (10×)
Equipment • El-Clip Tip pipette 12 channel adjustable 2-125 μL, Cat. No. 4672070BT • ThermoFisher MultiDrop 384, Cat. No. 5840300 • Multidrop • Agilent Bravo, Cat. No. G5409A • Bravo • SpectraMax M5
Assay Ready Plates (ARPs) • ARPs comes in two formats: • […] final top concentration with a 2.5 fold dilution down. • […] final top concentration with a 3 fold dilution down. • Both have a 10 point Dose response. • 0.1% DMSO final in the Black Assay Plate. • Compounds are diluted 1000 fold in the Black Assay Plate. • Each plate is designed for 14 compounds in duplicate. • In the final Black Assay Plate:
Trypanosoma brucei brucei Culture
Step 2, Day 4 • Centrifuge at 800×g for 5 minutes at room temperature. • Resuspend in 1 mL media. • Make a 1:25 fold dilution (10 μL/240 μL media). • Count on a hemocytometer (after adding parasites). • Let sit for 1-2 minutes for the parasites to settle. • Count should be approximately 100 viable motile parasites/16 grid or approximately 25×10^6 parasites/flask. • Passage the parasites by adding 1×10^6 parasites/T75 flask in 20 mL media. • Passage the parasites by adding 2.33×10^6 parasites/T175 flask in 46.6 mL media. • For every T75 flask should make enough for approximately 1.5×384 well assay plates. • For every T175 flask should make enough for approximately 3.8×384 well assay plates.
Step 3, Day 6 • Centrifuge at 800×g for 5 minutes. • Resuspend in 3 mL assay media (No phenol red, no FBS) per 75 starting flask. • Resuspend in 7 mL assay media (No phenol red, no FBS) per 175 flask • Make a 1:25 fold dilution. • Count by hemocytometer. • Every T75 flask set up should have approximately 75×10^6 parasites/flask (verify doubling time=8.7 hrs±1 hr). • Every T175 flask set up should have approximately 175×10^6 parasites/flask (verify doubling time=8.7 hrs±1 hr). • Require 46×10^6 parasites per 384 well plate (at 120,000 parasites per well). Protocol B […]

Question: O=C1NCC[C@@H]1NC(=O)[C@H]1C[C@H](c2c(-c3ccc(F)cc3)[nH]c3c(F)cc(F)cc32)C1 [Compound 162] was tested. Which IC50 did it give?
Answer: Its IC50 is 250 to 1000 nM.

Question: With CCC(O)(CCCO)CNC(=O)[C@H]1C[C@H](c2c(-c3ccc(F)cc3)[nH]c3c(F)cc(F)cc32)C1 (stereo partly shown) [Compound 119] as the compound, how does the IC50 read?
Answer: Its IC50 is greater than 1000 nM.

Question: Which IC50 does the source give for O=C([C@H]1C[C@H](c2c(-c3ccc(F)cc3)[nH]c3c(F)cc(F)cc32)C1)N1CCN(CCO)CC1 [Compound 126] here?
Answer: The IC50 was greater than 1000 nM.

Question: How did the IC50 turn out when O=C(NC1(CO)CCC1)[C@H]1C[C@H](c2c(-c3ccc(F)cc3)[nH]c3c(F)cc(F)cc32)C1 [Compound 6] was run?
Answer: Its IC50 is less than 250 nM.

Question: With O=C([C@H]1C[C@H](c2c(-c3ccc(F)cc3)[nH]c3c(F)cc(F)cc32)C1)N1CCCC(CCO)C1 (stereo partly shown) [Compound 128] as the compound, how does the IC50 read?
Answer: The IC50 was greater than 1000 nM.

Question: For O=C([C@H]1C[C@H](c2c(-c3ccc(F)cc3)[nH]c3c(F)cc(F)cc32)C1)N1CC(O)C(CO)C1 (stereo partly shown) [Compound 138], which IC50 is on record?
Answer: The IC50 was 250 to 1000 nM.

Question: O=C1CCC(NC(=O)[C@H]2C[C@H](c3c(-c4ccc(F)cc4)[nH]c4c(F)cc(F)cc43)C2)C1 (stereo partly shown) [Compound 159] was tested. Which IC50 did it give?
Answer: Its IC50 is greater than 1000 nM.

Question: O=C(NC(CO)CO)[C@H]1C[C@H](c2c(-c3ccc(F)cc3)[nH]c3c(F)cc(F)cc32)C1 [Compound 8] was tested. Which IC50 did it give?
Answer: The IC50 was less than 250 nM.

Question: CN1CCC(NC(=O)[C@H]2C[C@H](c3c(-c4ccc(F)cc4)[nH]c4c(F)cc(F)cc43)C2)C1=O (stereo partly shown) [Compound 7] was tested. Which IC50 did it give?
Answer: Its IC50 is 250 to 1000 nM.

Question: Which IC50 does the source give for CC(CO)N1CCN(C(=O)[C@H]2C[C@H](c3c(-c4ccc(F)cc4)[nH]c4c(F)cc(F)cc43)C2)CC1 (mixture of isomers) [Compound 122] here?
Answer: The IC50 was greater than 1000 nM.
